# System: six V600E BRAF melanoma cell lines
# Assay: Screening of recombinant RTK ligands for ability to confer resistance to BRAFi (PLX4720) or MEKi (PD184352) (Table 4)
# Format: cell-based, human
# Set-up: ability of recombinant RTK ligand to confer resistance / ability of recombinant RTK ligand to confer resistance (screening value): scale not given here
# Procedure, shortened: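 Resistance to BRAFi (PLX4720) or MEKi (PD184352) was tested in six V600E BRAF melanoma lines given one of 22 recombinant RTK ligands. For a subset of RTKs, activation was checked by high-throughput tyrosine kinase phosphorylation profiling and western blot.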
# [1] = A2058, PD184352 - 1 uM, ligand 1.6 ng/ml
# [2] = A2058, PD184352 - 1 uM, ligand 6.25 ng/ml
# [3] = A2058, PD184352 - 1 uM, ligand 25 ng/ml
# [4] = A2058, PD184352 - 1 uM, ligand 100 ng/ml
# [5] = A2058, PLX4720 - 2 uM, ligand 1.6 ng/ml
# [6] = A2058, PLX4720 - 2 uM, ligand 6.25 ng/ml
# [7] = A2058, PLX4720 - 2 uM, ligand 25 ng/ml
# [8] = A2058, PLX4720 - 2 uM, ligand 100 ng/ml
# [9] = C32, PD184352 - 1 uM, ligand 1.6 ng/ml
# [10] = C32, PD184352 - 1 uM, ligand 6.25 ng/ml
# [11] = C32, PD184352 - 1 uM, ligand 25 ng/ml
# [12] = C32, PD184352 - 1 uM, ligand 100 ng/ml
# [13] = C32, PLX4720 - 2 uM, ligand 1.6 ng/ml
# [14] = C32, PLX4720 - 2 uM, ligand 6.25 ng/ml
# [15] = C32, PLX4720 - 2 uM, ligand 25 ng/ml
# [16] = C32, PLX4720 - 2 uM, ligand 100 ng/ml
# [17] = Colo 829, PD184352 - 1 uM, ligand 1.6 ng/ml
# [18] = Colo 829, PD184352 - 1 uM, ligand 6.25 ng/ml
# [19] = Colo 829, PD184352 - 1 uM, ligand 25 ng/ml
# [20] = Colo 829, PD184352 - 1 uM, ligand 100 ng/ml
# [21] = Colo 829, PLX4720 - 2 uM, ligand 1.6 ng/ml
# [22] = Colo 829, PLX4720 - 2 uM, ligand 6.25 ng/ml
# [23] = Colo 829, PLX4720 - 2 uM, ligand 25 ng/ml
# [24] = Colo 829, PLX4720 - 2 uM, ligand 100 ng/ml
# [25] = G-361, PD184352 - 1 uM, ligand 1.6 ng/ml
# [26] = G-361, PD184352 - 1 uM, ligand 6.25 ng/ml
# [27] = G-361, PD184352 - 1 uM, ligand 25 ng/ml
# [28] = G-361, PD184352 - 1 uM, ligand 100 ng/ml
# [29] = G-361, PLX4720 - 2 uM, ligand 1.6 ng/ml
# [30] = G-361, PLX4720 - 2 uM, ligand 6.25 ng/ml
# [31] = G-361, PLX4720 - 2 uM, ligand 25 ng/ml
# [32] = G-361, PLX4720 - 2 uM, ligand 100 ng/ml
# [33] = SK-MEL-5, PD184352 - 1 uM, ligand 1.6 ng/ml
# [34] = SK-MEL-5, PD184352 - 1 uM, ligand 6.25 ng/ml
# [35] = SK-MEL-5, PD184352 - 1 uM, ligand 25 ng/ml
# [36] = SK-MEL-5, PD184352 - 1 uM, ligand 100 ng/ml
# [37] = SK-MEL-5, PLX4720 - 2 uM, ligand 1.6 ng/ml
# [38] = SK-MEL-5, PLX4720 - 2 uM, ligand 6.25 ng/ml
# [39] = SK-MEL-5, PLX4720 - 2 uM, ligand 25 ng/ml
# [40] = SK-MEL-5, PLX4720 - 2 uM, ligand 100 ng/ml
# [41] = SK-MEL-28, PD184352 - 1 uM, ligand 1.6 ng/ml
# [42] = SK-MEL-28, PD184352 - 1 uM, ligand 6.25 ng/ml
# [43] = SK-MEL-28, PD184352 - 1 uM, ligand 25 ng/ml
# [44] = SK-MEL-28, PD184352 - 1 uM, ligand 100 ng/ml
# [45] = SK-MEL-28, PLX4720 - 2 uM, ligand 1.6 ng/ml
# [46] = SK-MEL-28, PLX4720 - 2 uM, ligand 6.25 ng/ml
# [47] = SK-MEL-28, PLX4720 - 2 uM, ligand 25 ng/ml
# [48] = SK-MEL-28, PLX4720 - 2 uM, ligand 100 ng/ml
substance,measurement,setting,value
SCF,ability of recombinant RTK ligand to confer resistance,"A2058, PD184352 - 1 uM, ligand 0.4 ng/ml",1.04
same,ability of recombinant RTK ligand to confer resistance,[1],1.04
same,ability of recombinant RTK ligand to confer resistance,[2],1.13
same,ability of recombinant RTK ligand to confer resistance,[3],1.12
same,ability of recombinant RTK ligand to confer resistance,[4],1.09
same,ability of recombinant RTK ligand to confer resistance,"A2058, PLX4720 - 2 uM, ligand 0.4 ng/ml",1.04
same,ability of recombinant RTK ligand to confer resistance,[5],1.06
same,ability of recombinant RTK ligand to confer resistance,[6],1.07
same,ability of recombinant RTK ligand to confer resistance,[7],1.13
same,ability of recombinant RTK ligand to confer resistance,[8],1.08
same,ability of recombinant RTK ligand to confer resistance,"C32, PD184352 - 1 uM, ligand 0.4 ng/ml",1.02
same,ability of recombinant RTK ligand to confer resistance,[9],1.05
same,ability of recombinant RTK ligand to confer resistance,[10],1.03
same,ability of recombinant RTK ligand to confer resistance,[11],1.04
same,ability of recombinant RTK ligand to confer resistance,[12],0.98
same,ability of recombinant RTK ligand to confer resistance,"C32, PLX4720 - 2 uM, ligand 0.4 ng/ml",1.05
same,ability of recombinant RTK ligand to confer resistance,[13],0.94
same,ability of recombinant RTK ligand to confer resistance,[14],0.97
same,ability of recombinant RTK ligand to confer resistance,[15],0.98
same,ability of recombinant RTK ligand to confer resistance,[16],0.96
same,ability of recombinant RTK ligand to confer resistance,"Colo 829, PD184352 - 1 uM, ligand 0.4 ng/ml",1.00
same,ability of recombinant RTK ligand to confer resistance,[17],1.08
same,ability of recombinant RTK ligand to confer resistance,[18],1.15
same,ability of recombinant RTK ligand to confer resistance,[19],1.18
same,ability of recombinant RTK ligand to confer resistance,[20],1.09
same,ability of recombinant RTK ligand to confer resistance,"Colo 829, PLX4720 - 2 uM, ligand 0.4 ng/ml",0.96
same,ability of recombinant RTK ligand to confer resistance,[21],1.01
same,ability of recombinant RTK ligand to confer resistance,[22],1.06
same,ability of recombinant RTK ligand to confer resistance,[23],1.10
same,ability of recombinant RTK ligand to confer resistance,[24],1.04
same,ability of recombinant RTK ligand to confer resistance,"G-361, PD184352 - 1 uM, ligand 0.4 ng/ml",1.06
same,ability of recombinant RTK ligand to confer resistance,[25],0.99
same,ability of recombinant RTK ligand to confer resistance,[26],1.06
same,ability of recombinant RTK ligand to confer resistance,[27],1.13
same,ability of recombinant RTK ligand to confer resistance,[28],1.07
same,ability of recombinant RTK ligand to confer resistance,"G-361, PLX4720 - 2 uM, ligand 0.4 ng/ml",1.07
same,ability of recombinant RTK ligand to confer resistance,[29],1.03
same,ability of recombinant RTK ligand to confer resistance,[30],1.04
same,ability of recombinant RTK ligand to confer resistance,[31],1.12
same,ability of recombinant RTK ligand to confer resistance,[32],1.07
same,ability of recombinant RTK ligand to confer resistance,"SK-MEL-5, PD184352 - 1 uM, ligand 0.4 ng/ml",0.97
same,ability of recombinant RTK ligand to confer resistance,[33],0.34
same,ability of recombinant RTK ligand to confer resistance,[34],1.02
same,ability of recombinant RTK ligand to confer resistance,[35],1.10
same,ability of recombinant RTK ligand to confer resistance,[36],1.12
same,ability of recombinant RTK ligand to confer resistance,"SK-MEL-5, PLX4720 - 2 uM, ligand 0.4 ng/ml",0.90
same,ability of recombinant RTK ligand to confer resistance,[37],8.91
same,ability of recombinant RTK ligand to confer resistance,[38],0.96
same,ability of recombinant RTK ligand to confer resistance,[39],1.00
same,ability of recombinant RTK ligand to confer resistance,[40],1.09
same,ability of recombinant RTK ligand to confer resistance,"SK-MEL-28, PD184352 - 1 uM, ligand 0.4 ng/ml",1.03
same,ability of recombinant RTK ligand to confer resistance,[41],0.94
same,ability of recombinant RTK ligand to confer resistance,[42],1.01
same,ability of recombinant RTK ligand to confer resistance,[43],1.06
same,ability of recombinant RTK ligand to confer resistance,[44],0.99
same,ability of recombinant RTK ligand to confer resistance,"SK-MEL-28, PLX4720 - 2 uM, ligand 0.4 ng/ml",0.92
same,ability of recombinant RTK ligand to confer resistance,[45],0.89
same,ability of recombinant RTK ligand to confer resistance,[46],0.98
same,ability of recombinant RTK ligand to confer resistance,[47],0.92
same,ability of recombinant RTK ligand to confer resistance,[48],0.98
neuregulin 1,ability of recombinant RTK ligand to confer resistance,[1],1.04
same,ability of recombinant RTK ligand to confer resistance,[2],1.08
same,ability of recombinant RTK ligand to confer resistance,[3],1.14
same,ability of recombinant RTK ligand to confer resistance,[4],1.18
same,ability of recombinant RTK ligand to confer resistance,"A2058, PD184352 - 1 uM, ligand 400 ng/ml",1.27
same,ability of recombinant RTK ligand to confer resistance,[5],1.05
same,ability of recombinant RTK ligand to confer resistance,[6],1.07
same,ability of recombinant RTK ligand to confer resistance,[7],1.12
same,ability of recombinant RTK ligand to confer resistance,[8],1.09
same,ability of recombinant RTK ligand to confer resistance,"A2058, PLX4720 - 2 uM, ligand 400 ng/ml",1.22
same,ability of recombinant RTK ligand to confer resistance,[9],1.12
same,ability of recombinant RTK ligand to confer resistance,[10],1.20
same,ability of recombinant RTK ligand to confer resistance,[11],1.24
same,ability of recombinant RTK ligand to confer resistance,[12],1.52
same,ability of recombinant RTK ligand to confer resistance,"C32, PD184352 - 1 uM, ligand 400 ng/ml",1.32
same,ability of recombinant RTK ligand to confer resistance,[13],1.01
same,ability of recombinant RTK ligand to confer resistance,[14],1.07
same,ability of recombinant RTK ligand to confer resistance,[15],1.10
same,ability of recombinant RTK ligand to confer resistance,[16],1.20
same,ability of recombinant RTK ligand to confer resistance,"C32, PLX4720 - 2 uM, ligand 400 ng/ml",1.22
same,ability of recombinant RTK ligand to confer resistance,[17],1.10
same,ability of recombinant RTK ligand to confer resistance,[18],1.04
same,ability of recombinant RTK ligand to confer resistance,[19],1.11
same,ability of recombinant RTK ligand to confer resistance,[20],1.37
same,ability of recombinant RTK ligand to confer resistance,"Colo 829, PD184352 - 1 uM, ligand 400 ng/ml",1.21
same,ability of recombinant RTK ligand to confer resistance,[21],0.03
same,ability of recombinant RTK ligand to confer resistance,[22],0.98
same,ability of recombinant RTK ligand to confer resistance,[23],1.06
same,ability of recombinant RTK ligand to confer resistance,[24],1.24
same,ability of recombinant RTK ligand to confer resistance,"Colo 829, PLX4720 - 2 uM, ligand 400 ng/ml",1.17
same,ability of recombinant RTK ligand to confer resistance,[25],0.93
same,ability of recombinant RTK ligand to confer resistance,[26],0.96
same,ability of recombinant RTK ligand to confer resistance,[27],0.98
same,ability of recombinant RTK ligand to confer resistance,[28],1.01
same,ability of recombinant RTK ligand to confer resistance,"G-361, PD184352 - 1 uM, ligand 400 ng/ml",1.17
same,ability of recombinant RTK ligand to confer resistance,[29],0.87
same,ability of recombinant RTK ligand to confer resistance,[30],1.06
same,ability of recombinant RTK ligand to confer resistance,[31],0.93
same,ability of recombinant RTK ligand to confer resistance,[32],0.99
same,ability of recombinant RTK ligand to confer resistance,"G-361, PLX4720 - 2 uM, ligand 400 ng/ml",1.14
same,ability of recombinant RTK ligand to confer resistance,[33],0.96
same,ability of recombinant RTK ligand to confer resistance,[34],0.97
same,ability of recombinant RTK ligand to confer resistance,[35],1.01
same,ability of recombinant RTK ligand to confer resistance,[36],1.06
same,ability of recombinant RTK ligand to confer resistance,"SK-MEL-5, PD184352 - 1 uM, ligand 400 ng/ml",1.07
same,ability of recombinant RTK ligand to confer resistance,[37],0.94
same,ability of recombinant RTK ligand to confer resistance,[38],0.91
same,ability of recombinant RTK ligand to confer resistance,[39],0.98
same,ability of recombinant RTK ligand to confer resistance,[40],1.04
same,ability of recombinant RTK ligand to confer resistance,"SK-MEL-5, PLX4720 - 2 uM, ligand 400 ng/ml",0.96
same,ability of recombinant RTK ligand to confer resistance,[41],1.09
same,ability of recombinant RTK ligand to confer resistance,[42],1.08
same,ability of recombinant RTK ligand to confer resistance,[43],1.05
same,ability of recombinant RTK ligand to confer resistance,[44],1.08
same,ability of recombinant RTK ligand to confer resistance,"SK-MEL-28, PD184352 - 1 uM, ligand 400 ng/ml",1.22
same,ability of recombinant RTK ligand to confer resistance,[45],0.92
same,ability of recombinant RTK ligand to confer resistance,[46],1.18
same,ability of recombinant RTK ligand to confer resistance,[47],1.09
same,ability of recombinant RTK ligand to confer resistance,[48],1.09
same,ability of recombinant RTK ligand to confer resistance,"SK-MEL-28, PLX4720 - 2 uM, ligand 400 ng/ml",1.19

# Source: patent publication US20140348819A1, “Methods of Treating Cancer” (Dana-Farber Cancer Institute, Inc., priority 2011, published 2014)
